# Laboratory results from US6630501B1, “Phosphinic pseudo-peptides that may be used as matrix zinc metalloprotease inhibitors” (Commissariat a l'energie Atomique, priority 1999, dated 2003).
# Legend:
# MMP-9 (Gel-B) = molecular target: T1, MMP-9 (Gel-B) (Homo sapiens, UniProt P14780); assay: Ki determination with fluorogenic synthetic substrates, recombinant MMP-9; assay type: biochemical; conditions: for Ki: Tris/50 mM HCl buffer, pH 6.8, 10 mM CaCl2, 25° C., read-out: affinity constant Ki, MMP-9 Gel-B; for inhibition at 2000 µM: read-out: percentage of inhibition, MMP-9
# T1 construct: made in house; host or cells: E. coli
# T1 sequence (P14780 94-707): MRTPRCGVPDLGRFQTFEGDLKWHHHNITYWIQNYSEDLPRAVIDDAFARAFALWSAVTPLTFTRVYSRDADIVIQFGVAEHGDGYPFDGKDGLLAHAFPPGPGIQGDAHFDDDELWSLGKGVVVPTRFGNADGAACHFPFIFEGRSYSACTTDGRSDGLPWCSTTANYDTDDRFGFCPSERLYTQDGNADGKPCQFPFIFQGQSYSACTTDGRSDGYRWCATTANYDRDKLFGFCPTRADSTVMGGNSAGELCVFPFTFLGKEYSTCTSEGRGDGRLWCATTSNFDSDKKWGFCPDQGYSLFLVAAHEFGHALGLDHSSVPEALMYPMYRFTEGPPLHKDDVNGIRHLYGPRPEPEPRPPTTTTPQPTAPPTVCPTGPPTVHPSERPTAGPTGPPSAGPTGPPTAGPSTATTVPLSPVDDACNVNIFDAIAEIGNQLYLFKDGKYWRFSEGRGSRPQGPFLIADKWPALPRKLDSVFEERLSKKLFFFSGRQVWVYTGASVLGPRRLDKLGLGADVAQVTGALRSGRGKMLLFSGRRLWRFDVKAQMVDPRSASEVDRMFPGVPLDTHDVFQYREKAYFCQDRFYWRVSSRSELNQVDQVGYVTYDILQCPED
# Procedure: (§1) The MMPs used were produced in recombinant form, in an E. coli expression system, and then purified using different types of chromatographies. Apart from stromelysin-3 (MMP-11), the MMPs produces correspond to human sequences. The Stromelysin-3 used in this study corresponds to the murine form.
# (§2) The activity of each MMP was determined using two fluorogenic synthetic substrates. The cutoff of said substrates, which generates a fluorescent signal proportional to the quantity of split substrate, enables a precise determination of the kinetic parameters. The affinity constants Ki were calculated using the equation of Horowitz et al, Proc. Natl. Acad. Sci. USA, 1987, 84, p. 6654-6658 [14], accounting for the dependency of the percentage of inhibition measured experimentally according to the concentration of inhibitor, as a function of the enzyme and substrate concentration.
# (§3) The experiments for conducted in a Tris/50 mM HCl buffer, pH 6.8, 10 mM CaCl2, 25° C.
# MMP-7 (Matrilysin) = molecular target: T2, MMP-7 (Matrilysin) (Homo sapiens, UniProt P09237); assay: Ki determination with fluorogenic synthetic substrates, recombinant MMP-7; assay type: biochemical
# T2 construct: made in house; host or cells: E. coli
# T2 sequence (P09237 95-267): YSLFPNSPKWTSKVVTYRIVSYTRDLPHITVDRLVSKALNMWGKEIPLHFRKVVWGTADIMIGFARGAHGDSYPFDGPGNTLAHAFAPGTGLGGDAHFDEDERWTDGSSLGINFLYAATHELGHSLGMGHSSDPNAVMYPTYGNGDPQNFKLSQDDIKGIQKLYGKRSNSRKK
# Procedure: as §1, §2, §3
# MMP-8 (HNC) = molecular target: T3, MMP-8 (HNC) (Homo sapiens, UniProt P22894); assay: Ki determination with fluorogenic synthetic substrates, recombinant MMP-8; assay type: biochemical; conditions: for Ki: Tris/50 mM HCl buffer, pH 6.8, 10 mM CaCl2, 25° C., read-out: affinity constant Ki, MMP-8 HNC
# T3 construct: made in house; host or cells: E. coli
# T3 sequence (P22894 101-467): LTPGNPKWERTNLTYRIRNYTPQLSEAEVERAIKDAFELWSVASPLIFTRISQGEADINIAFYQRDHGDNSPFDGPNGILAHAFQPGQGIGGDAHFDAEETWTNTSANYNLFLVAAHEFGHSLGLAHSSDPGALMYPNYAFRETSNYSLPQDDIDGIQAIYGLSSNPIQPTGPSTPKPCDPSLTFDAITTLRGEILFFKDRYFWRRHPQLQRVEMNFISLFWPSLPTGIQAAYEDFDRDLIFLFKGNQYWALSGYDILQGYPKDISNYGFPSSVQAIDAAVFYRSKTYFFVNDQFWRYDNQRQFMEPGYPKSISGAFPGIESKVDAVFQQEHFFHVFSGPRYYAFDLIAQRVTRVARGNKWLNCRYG
# Procedure: as §1, §2, §3
# MMP-2 (Gel-A) = molecular target: T4, MMP-2 (Gel-A) (Homo sapiens, UniProt P08253); assay: Ki determination with fluorogenic synthetic substrates, recombinant MMP-2; assay type: biochemical; conditions: for Ki: Tris/50 mM HCl buffer, pH 6.8, 10 mM CaCl2, 25° C., read-out: affinity constant Ki, MMP-2 Gel-A; for inhibition at 2000 µM: read-out: percentage of inhibition, MMP-2
# T4 construct: made in house; host or cells: E. coli
# T4 sequence (P08253 110-660): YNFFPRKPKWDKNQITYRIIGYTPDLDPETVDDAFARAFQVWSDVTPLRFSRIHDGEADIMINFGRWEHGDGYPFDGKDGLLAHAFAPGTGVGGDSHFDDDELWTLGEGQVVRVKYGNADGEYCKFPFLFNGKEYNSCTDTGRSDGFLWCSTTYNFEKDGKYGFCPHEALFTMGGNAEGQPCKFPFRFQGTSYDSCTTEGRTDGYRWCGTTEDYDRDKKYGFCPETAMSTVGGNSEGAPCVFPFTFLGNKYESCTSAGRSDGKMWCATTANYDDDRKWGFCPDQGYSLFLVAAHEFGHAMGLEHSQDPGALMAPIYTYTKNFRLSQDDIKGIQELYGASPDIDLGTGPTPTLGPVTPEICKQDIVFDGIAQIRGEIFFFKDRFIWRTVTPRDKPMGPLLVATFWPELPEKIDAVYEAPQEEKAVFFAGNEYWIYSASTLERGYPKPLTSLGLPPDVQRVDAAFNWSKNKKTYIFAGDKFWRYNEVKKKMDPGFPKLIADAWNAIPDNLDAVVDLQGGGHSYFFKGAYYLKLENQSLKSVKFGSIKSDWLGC
# Procedure: as §1, §2, §3
# MMP-14 (MT1-MMP) = molecular target: T5, MMP-14 (MT1-MMP) (Homo sapiens, UniProt P50281); assay: Ki determination with fluorogenic synthetic substrates, recombinant MMP-14; assay type: biochemical; conditions: for Ki: Tris/50 mM HCl buffer, pH 6.8, 10 mM CaCl2, 25° C., read-out: affinity constant Ki, MMP-14 MT1-MMP
# T5 construct: made in house; host or cells: E. coli
# Procedure: as §1, §2, §3
# MMP-1 (HFC) = molecular target: T6, MMP-1 (HFC) (Homo sapiens, UniProt P03956); assay: Ki determination with fluorogenic synthetic substrates, recombinant MMP-1; assay type: biochemical; conditions: for inhibition at 1 µM: @ 1 μM inhibitor; for inhibition at 1 µM / inhibition at 2000 µM: read-out: percentage of inhibition, MMP-1; for inhibition at 2000 µM: @ 2 mM inhibitor
# T6 construct: made in house; host or cells: E. coli
# T6 sequence (P03956 100-469): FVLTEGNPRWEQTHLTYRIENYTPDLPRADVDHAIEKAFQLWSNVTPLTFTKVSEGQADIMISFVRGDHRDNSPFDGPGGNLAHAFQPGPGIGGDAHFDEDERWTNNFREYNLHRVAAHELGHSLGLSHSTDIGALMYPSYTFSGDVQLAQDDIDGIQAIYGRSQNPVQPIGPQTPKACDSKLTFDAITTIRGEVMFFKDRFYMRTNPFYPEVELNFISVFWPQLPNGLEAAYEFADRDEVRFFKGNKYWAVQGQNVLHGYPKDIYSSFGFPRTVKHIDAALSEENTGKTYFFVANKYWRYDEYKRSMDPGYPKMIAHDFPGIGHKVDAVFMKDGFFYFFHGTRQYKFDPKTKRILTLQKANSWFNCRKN
# Procedure: as §1, §2, §3
# [1] = molecular target: T7, MMP-11 (stromelysin-3, mST3) (Mus musculus, UniProt Q02853); assay: Ki determination with fluorogenic synthetic substrates, recombinant MMP-11; assay type: biochemical, murine; conditions: for Ki: Tris/50 mM HCl buffer, pH 6.8, 10 mM CaCl2, 25° C., read-out: affinity constant Ki, MMP-11 mST3
# T7 construct: made in house; host or cells: E. coli
# T7 sequence (Q02853 102-492): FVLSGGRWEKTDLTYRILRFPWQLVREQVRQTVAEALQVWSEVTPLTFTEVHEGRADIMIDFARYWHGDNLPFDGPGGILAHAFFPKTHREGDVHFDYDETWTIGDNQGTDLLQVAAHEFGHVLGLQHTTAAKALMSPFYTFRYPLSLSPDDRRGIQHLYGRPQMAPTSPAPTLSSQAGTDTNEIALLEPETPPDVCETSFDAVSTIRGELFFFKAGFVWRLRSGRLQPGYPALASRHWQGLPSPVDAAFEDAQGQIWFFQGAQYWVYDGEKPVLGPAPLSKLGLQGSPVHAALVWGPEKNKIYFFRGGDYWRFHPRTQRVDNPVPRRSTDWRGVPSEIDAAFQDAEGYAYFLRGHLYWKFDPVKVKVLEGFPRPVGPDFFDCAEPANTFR
# Procedure: as §1, §2, §3
Compound,Ki (MMP-9 (Gel-B)) [nM],Ki (MMP-8 (HNC)) [nM],Ki (MMP-2 (Gel-A)) [nM],Ki (MMP-14 (MT1-MMP)) [nM],Ki [1] [nM],inhibition at 2000 µM (MMP-1 (HFC)) [%],other results
NC(=O)C(Cc1c[nH]c2ccccc12)NC(=O)C(CCCc1ccccc1)CP(=O)(O)C(Cc1ccccc1)NC(=O)CNc1cccc(Cl)c1 (stereo not drawn) [Compound 28],6,4,9,45,3.8,,"inhibition at 1 µM (MMP-7 (Matrilysin); @ 1 μM inhibitor, read-out: percentage of inhibition, MMP-7): 25%; inhibition at 1 µM (MMP-1 (HFC)): 63%"
NC(=O)[C@@H](Cc1c[nH]c2ccccc12)NC(=O)C(CCCc1ccccc1)CP(=O)(O)C(Cc1ccccc1)NC(=O)OCc1ccccc1 (stereo partly drawn) [Compound 23],,,,,,,"percentage of inhibition, MMP-9 (MMP-9 (Gel-B); @ 2 mM inhibitor): 14% @ 2 mM; percentage of inhibition, MMP-7 (MMP-7 (Matrilysin); @ 50 mM inhibitor): 18% @ 50 mM; percentage of inhibition, MMP-8 (MMP-8 (HNC); @ 1 mM inhibitor): 2% @ 1 mM; percentage of inhibition, MMP-2 (MMP-2 (Gel-A); @ 2 mM inhibitor): 6% @ 2 mM; percentage of inhibition, MMP-14 (MMP-14 (MT1-MMP); @ 10 mM inhibitor): 10% @ 10 mM; percentage of inhibition, MMP-1 (MMP-1 (HFC); @ 10 mM inhibitor): 3% @ 10 mM; percentage of inhibition, MMP-11 ([1]; @ 1 mM inhibitor): 1% @ 1 mM"
CC(NC(=O)OCc1ccccc1)P(=O)(O)CC(CCCc1ccccc1)C(=O)NC(Cc1c[nH]c2ccccc12)C(N)=O (stereo not drawn) [Compound 9],23,8,31,92,100,30,factor by which activity on MMP-8 is multiplied when R3 changes from benzyl to phenylpropyl (MMP-8 (HNC); compound 9 in relation to compound 7): 30
NC(=O)C(Cc1c[nH]c2ccccc12)NC(=O)C(COCc1ccccc1)CP(=O)(O)C(Cc1ccccc1)NC(=O)OCc1ccccc1 (stereo not drawn) [Compound 17],55,20,85,545,16,9,
CC(NC(=O)C(CCCc1ccccc1)CP(=O)(O)C(Cc1ccccc1)NC(=O)OCc1ccccc1)C(N)=O (stereo not drawn) [Compound 22],,240,,2960,,9,"inhibition at 2000 µM (MMP-9 (Gel-B); @ 2 mM inhibitor): 45%; inhibition at 2000 µM (MMP-2 (Gel-A); @ 2 mM inhibitor): 31%; inhibition at 1000 µM ([1]; @ 1 mM inhibitor, read-out: percentage of inhibition, MMP-11): 20%"
CC(NC(=O)OCc1ccccc1)P(=O)(O)CC(COCc1ccccc1)C(=O)NC(Cc1c[nH]c2ccccc12)C(N)=O (stereo not drawn) [Compound 10],44,19,250,550,175,15,
"NC(=O)[C@H](Cc1c[nH]c2ccccc12)NC(=O)C(CCCc1ccccc1)CP(=O)(O)C(Cc1ccccc1)NC(=O)OCc1ccccc1 (mixture of isomers) [Compound 15, ZPheΨ(PO2CpH2)pPheTrpNH2]",10,2.5,20,105,5,23,
CC(NC(=O)OCc1ccccc1)P(=O)(O)CC(CCc1ccccc1)C(=O)NC(Cc1c[nH]c2ccccc12)C(N)=O (stereo not drawn) [Compound 8],60,20,80,270,51,23,
NC(=O)C(Cc1c[nH]c2ccccc12)NC(=O)C(CCc1ccccc1)CP(=O)(O)C(Cc1ccccc1)NC(=O)OCc1ccccc1 (stereo not drawn) [Compound 14],110,45,275,660,8.8,10,"inhibitory power on MMP-11, in words [1]: very powerful"
CC(CP(=O)(O)C(Cc1ccccc1)NC(=O)OCc1ccccc1)C(=O)NC(Cc1c[nH]c2ccccc12)C(N)=O (stereo not drawn) [Compound 12],,,,,2670,20,"inhibition at 2000 µM (MMP-9 (Gel-B); @ 2 mM inhibitor): 0%; inhibition at 1000 µM (MMP-8 (HNC); @ 1 mM inhibitor, read-out: percentage of inhibition, MMP-8): 9%; inhibition at 2000 µM (MMP-2 (Gel-A); @ 2 mM inhibitor): 0%; inhibition at 10000 µM (MMP-14 (MT1-MMP); @ 10 mM inhibitor, read-out: percentage of inhibition, MMP-14): 0%"
CC(NC(=O)OCc1ccccc1)P(=O)(O)CC(CSCc1ccccc1)C(=O)NC(Cc1c[nH]c2ccccc12)C(N)=O (stereo not drawn) [Compound 11],6,,14,26,36,45,
NC(=O)C(Cc1c[nH]c2ccccc12)NC(=O)C(CCCc1ccccc1)CP(=O)(O)C(Cc1ccccc1)NC(=O)c1cc2ccccc2[nH]1 (stereo not drawn) [Compound 30],8,,10,41,1.5,,"Ki (MMP-7 (Matrilysin); Tris/50 mM HCl buffer, pH 6.8, 10 mM CaCl2, 25° C., read-out: affinity constant Ki, MMP-7 Matrilysin): 605 nM; inhibition at 1 µM (MMP-1 (HFC)): 87%"
CC(NC(=O)OCc1ccccc1)P(=O)(O)CC(Cc1ccccc1)C(=O)NC(Cc1c[nH]c2ccccc12)C(N)=O (stereo not drawn) [Compound 7],280,240,250,2030,350,24,
